Where a name gives a salt, the structure may show the parent alone. Read-outs that look alike come from different tables or passages of the source.
What was measured:
[1] = system: Calcium Ionophore Stimulated Leukotriene Formation in Human Polymorphonuclear Leukocytes; experiment: Calcium ionophore-induced LTB4 formation in human polymorphonuclear leukocytes (Lipoxygenase Inhibition Determination); assay type: cell-based; conditions: human PMNL, 15 min preincubation, calcium ionophore 8.3 μM, 10 min at 37° C., LTB4 by enzyme-linked immunoassay or HPLC, read-out: Inhibitory Potencies Against Calcium Ionophore Stimulated Leukotriene Formation in Human Polymorphonuclear Leukocytes, IC50
Description: Leukotriene biosynthesis inhibitory activity of representative compounds of the present invention was evaluated in an assay involving calcium ionophore-induced LTB4 expressed in human polymorphornuclear leukocytes (PMNL). Human PMNL isolated from heparinized (20 USP units/mL) venous blood (25 mL) obtained from healthy volunteers was layered over an equal volume of Ficoll-Hypaque Mono-Poly Resolving Medium (ICN Flow, Costa Mesa, Calif.) and centrifugated at 400×g for 40 min at 20° C. The PMNL was collected, erythrocytes lysed and washed 2× and suspended at 1.0×10^7 cells/mL in Earle's balanced salt solution with 17 mM Earle's HEPES. […] Incubations were stopped with the addition of two volumes of ice-cold methanol followed by centrifuging the cell suspensions at 4° C. for 10 min at 450×g. The mount of LTB4 in the methanol extract was analyzed by enzyme-linked immunoassay or by HPLC analysis.

leukotriene synthesis = conditions: Bioorganic and Medicinal Chemistry Letters, 1: 645-648 (1991); cited from earlier work

SMILES | IC50 [1] [nM] | further results
O=C(O)C1CCC(c2ccc(OCc3ccc4ccccc4n3)cc2)(c2ccc(OCc3ccc4ccccc4n3)cc2)CC1 [Example 1, 4,4-bis-(4(2-quinolylmethoxy)phenyl)cyclohexane carboxylic acid] | 59 | 
O=C(O)C1CCC(c2ccc(OCc3ccc4ccccc4n3)cc2)(c2ccc(OCc3ccc4ccccc4n3)cc2)CC1 [Example 2, 4,4-bis-(4-(2-quinolylmethoxy)phenyl)cyclohexane carboxylic acid sodium salt] |  | IC50 ([1]; sodium salt): 47 nM
CC(=NOC1CCC(c2ccc(OCc3ccc4ccccc4n3)cc2)(c2ccc(OCc3ccc4ccccc4n3)cc2)CC1)C(=O)O [Example 5, sodium salt] | 37 | 
O=C(O)CSC(CCCc1ccc(Cl)cc1)c1ccc(OCc2ccc3ccccc3n2)cc1 [L-674,636, {[4-(4-chlorophenyl)-1-[4-(2-quinolylmethoxy)phenyl]-butyl]thio}acetic acid] |  | leukotriene synthesis inhibitor (in words) (leukotriene synthesis): potent and orally active leukotriene synthesis inhibitor

From patent US5691351A, “Bis-(Heteroarylmethoxyphenyl)cycloalkyl carboxylates as inhibitors of leukotriene biosynthesis” (Abbott Laboratories, priority 1996, dated 1997)
